From PubChem BioAssay (NCI)
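The compound was tested at five concentrations on cells cultured in 96-well plates, with a 48-hour exposure period. TGI marks complete inhibition of growth.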

Columns and labels:
Assay in all cases: NCI anticancer screen, dose series, 48 h
[1] = test system: 786-0 renal
[2] = test system: A498 renal
[3] = test system: A549 NSCLC
[4] = test system: ACHN renal
[5] = test system: BT-549 breast
[6] = test system: CAKI-1 renal
[7] = test system: CCRF-CEM leukemia
[8] = test system: COLO 205 colon
[9] = test system: DU-145 prostate
[10] = test system: EKVX NSCLC
[11] = test system: HCC-2998 colon
[12] = test system: HCT-116 colon
[13] = test system: HCT-15 colon
[14] = test system: HL-60(TB) leukemia
[15] = test system: HOP-62 NSCLC
[16] = test system: HOP-92 NSCLC
[17] = test system: HS 578T breast
[18] = test system: HT29 colon
[19] = test system: IGROV1 ovarian
[20] = test system: K-562 leukemia
[21] = test system: KM12 colon
[22] = test system: KM20L2 colon
[23] = test system: LOX IMVI melanoma
[24] = test system: M14 melanoma
[25] = test system: MALME-3M melanoma
[26] = test system: MCF7 breast
[27] = test system: MDA-MB-231 breast
[28] = test system: MDA-MB-435
[29] = test system: MDA-N
[30] = test system: MOLT-4 leukemia
[31] = test system: NCI-H226 lung
[32] = test system: NCI-H23 lung
[33] = test system: NCI-H460 lung
[34] = test system: NCI-H522 lung
[35] = test system: NCI/ADR-RES ovarian
[36] = test system: OVCAR-3 ovarian
[37] = test system: OVCAR-4 ovarian
[38] = test system: OVCAR-5 ovarian
[39] = test system: OVCAR-8 ovarian
[40] = test system: PC-3 prostate
[41] = test system: RPMI-8226 leukemia
[42] = test system: RXF 393 renal
[43] = test system: SF-268 CNS
[44] = test system: SF-295 CNS
[45] = test system: SF-539 CNS
[46] = test system: SK-MEL-2 melanoma
[47] = test system: SK-MEL-28 melanoma
[48] = test system: SK-MEL-5 melanoma
[49] = test system: SN12C renal
[50] = test system: SNB-19 CNS
[51] = test system: SNB-75 CNS
[52] = test system: SNB-78 CNS
[53] = test system: SR leukemia
[54] = test system: SW-620 colon
[55] = test system: T-47D breast
[56] = test system: TK-10 renal
[57] = test system: U251 CNS
[58] = test system: UACC-257 melanoma
[59] = test system: UO-31 renal
[60] = test system: DLD-1 colon
[61] = test system: DMS 114 small cell lung
[62] = test system: DMS 273 small cell lung
[63] = test system: LXFL 529 NSCLC
[64] = test system: SK-OV-3 ovarian
[65] = test system: UACC-62 melanoma

## Cc1ccc([N+](=O)[O-])c2c(NCCCN(C)C)ccnc12
[1]
  TGI: > 100 µM
[2]
  TGI: > 100 µM
[3]
  TGI: > 100 µM
[4]
  TGI: > 100 µM
[5]
  TGI: > 100 µM
[6]
  TGI: > 100 µM
[7]
  TGI: > 100 µM
[8]
  TGI: 31.8 µM
[9]
  TGI: > 100 µM
[10]
  TGI: > 100 µM
[11]
  TGI: 45.5 µM
[12]
  TGI: > 100 µM
[13]
  TGI: > 100 µM
[14]
  TGI: > 100 µM
[15]
  TGI: > 100 µM
[16]
  TGI: > 100 µM
[17]
  TGI: > 100 µM
[18]
  TGI: > 90.7 µM
[19]
  TGI: 91.8 µM
[20]
  TGI: > 100 µM
[21]
  TGI: > 100 µM
[22]
  TGI: 75.2 µM
[23]
  TGI: > 100 µM
[24]
  TGI: > 100 µM
[25]
  TGI: 44.8 µM
[26]
  TGI: > 100 µM
[27]
  TGI: > 100 µM
[28]
  TGI: 45.1 µM
[29]
  TGI: 98.4 µM
[30]
  TGI: > 100 µM
[31]
  TGI: > 100 µM
[32]
  TGI: > 100 µM
[33]
  TGI: 76.1 µM
[34]
  TGI: 55.8 µM
[35]
  TGI: > 100 µM
[36]
  TGI: > 93.1 µM
[37]
  TGI: > 76.9 µM
[38]
  TGI: > 100 µM
[39]
  TGI: > 100 µM
[40]
  TGI: > 100 µM
[41]
  TGI: > 100 µM
[42]
  TGI: > 100 µM
[43]
  TGI: > 100 µM
[44]
  TGI: > 100 µM
[45]
  TGI: > 77 µM
[46]
  TGI: > 100 µM
[47]
  TGI: > 100 µM
[48]
  TGI: 72.8 µM
[49]
  TGI: > 100 µM
[50]
  TGI: > 100 µM
[51]
  TGI: > 100 µM
[52]
  TGI: > 100 µM
[53]
  TGI: > 100 µM
[54]
  TGI: > 100 µM
[55]
  TGI: > 100 µM
[56]
  TGI: > 100 µM
[57]
  TGI: > 100 µM
[58]
  TGI: > 91.1 µM
[59]
  TGI: > 100 µM

## O=C1NC(=S)S/C1=C/c1ccco1
[2]
  TGI: 64.3 µM
[3]
  TGI: > 100 µM
[4]
  TGI: > 100 µM
[6]
  TGI: > 100 µM
[8]
  TGI: > 100 µM
[60]
  TGI: > 100 µM
[61]
  TGI: > 100 µM
[62]
  TGI: > 100 µM
[10]
  TGI: > 100 µM
[11]
  TGI: > 100 µM
[12]
  TGI: > 100 µM
[13]
  TGI: > 100 µM
[16]
  TGI: > 100 µM
[18]
  TGI: > 100 µM
[19]
  TGI: > 100 µM
[23]
  TGI: > 100 µM
[63]
  TGI: > 100 µM
[24]
  TGI: > 100 µM
[31]
  TGI: > 100 µM
[32]
  TGI: > 100 µM
[33]
  TGI: > 100 µM
[36]
  TGI: > 100 µM
[37]
  TGI: > 100 µM
[38]
  TGI: > 100 µM
[39]
  TGI: > 100 µM
[42]
  TGI: > 100 µM
[43]
  TGI: > 100 µM
[44]
  TGI: > 100 µM
[45]
  TGI: > 100 µM
[47]
  TGI: > 100 µM
[48]
  TGI: > 100 µM
[64]
  TGI: > 100 µM
[49]
  TGI: > 100 µM
[50]
  TGI: > 100 µM
[51]
  TGI: > 100 µM
[54]
  TGI: > 100 µM
[56]
  TGI: > 100 µM
[58]
  TGI: > 100 µM
[65]
  TGI: > 100 µM
[59]
  TGI: > 100 µM

## CC(C)Cc1c(C#N)c(C#N)c(N)n1Cc1ccccc1
[1]
  TGI: > 100 µM
[2]
  TGI: > 100 µM
[3]
  TGI: > 100 µM
[4]
  TGI: > 100 µM
[5]
  TGI: > 100 µM
[6]
  TGI: > 100 µM
[7]
  TGI: > 100 µM
[8]
  TGI: > 100 µM
[9]
  TGI: > 100 µM
[10]
  TGI: > 100 µM
[11]
  TGI: > 100 µM
[12]
  TGI: > 100 µM
[13]
  TGI: > 100 µM
[14]
  TGI: > 100 µM
[15]
  TGI: > 100 µM
[16]
  TGI: > 100 µM
[17]
  TGI: > 100 µM
[18]
  TGI: > 100 µM
[19]
  TGI: > 100 µM
[20]
  TGI: > 100 µM
[21]
  TGI: > 100 µM
[23]
  TGI: > 100 µM
[24]
  TGI: > 100 µM
[25]
  TGI: > 100 µM
[26]
  TGI: > 100 µM
[27]
  TGI: > 100 µM
[28]
  TGI: > 100 µM
[29]
  TGI: > 100 µM
[30]
  TGI: > 100 µM
[31]
  TGI: > 100 µM
[32]
  TGI: > 100 µM
[34]
  TGI: > 100 µM
[35]
  TGI: > 100 µM
[36]
  TGI: > 100 µM
[37]
  TGI: > 100 µM
[38]
  TGI: > 100 µM
[39]
  TGI: > 100 µM
[40]
  TGI: > 100 µM
[41]
  TGI: > 100 µM
[42]
  TGI: > 100 µM
[43]
  TGI: > 100 µM
[44]
  TGI: > 100 µM
[45]
  TGI: > 100 µM
[46]
  TGI: > 100 µM
[48]
  TGI: > 100 µM
[64]
  TGI: > 100 µM
[49]
  TGI: > 100 µM
[50]
  TGI: > 100 µM
[51]
  TGI: > 100 µM
[53]
  TGI: > 100 µM
[54]
  TGI: > 100 µM
[55]
  TGI: > 100 µM
[56]
  TGI: > 100 µM
[57]
  TGI: > 100 µM
[58]
  TGI: > 100 µM
[65]
  TGI: > 100 µM
[59]
  TGI: > 100 µM

## CC[P+](C#Cc1ccccc1)(c1ccccc1)c1ccccc1
[1]
  TGI: 4.36 µM
[2]
  TGI: 21.2 µM
[3]
  TGI: 14.8 µM
[4]
  TGI: 13 µM
[5]
  TGI: 3.43 µM
[6]
  TGI: 32.8 µM
[7]
  TGI: 1.69 µM
[8]
  TGI: 2.59 µM
[9]
  TGI: 10.4 µM
[10]
  TGI: 11.9 µM
[11]
  TGI: 4.46 µM
[12]
  TGI: 5.86 µM
[13]
  TGI: 17.7 µM
[14]
  TGI: 1.05 µM
[15]
  TGI: 8.94 µM
[16]
  TGI: 5.9 µM
[17]
  TGI: 7.77 µM
[18]
  TGI: 6.98 µM
[19]
  TGI: 11.9 µM
[20]
  TGI: 0.74 µM
[21]
  TGI: 3.29 µM
[23]
  TGI: 4.19 µM
[24]
  TGI: 3.56 µM
[25]
  TGI: 4.19 µM
[26]
  TGI: 10.8 µM
[27]
  TGI: 9.41 µM
[28]
  TGI: 2.83 µM
[29]
  TGI: 3.44 µM
[30]
  TGI: 3.93 µM
[31]
  TGI: 8.69 µM
[32]
  TGI: 7.51 µM
[33]
  TGI: 11.2 µM
[34]
  TGI: 3.32 µM
[35]
  TGI: > 100 µM
[36]
  TGI: 4.55 µM
[37]
  TGI: 12.3 µM
[38]
  TGI: 16.3 µM
[39]
  TGI: 6.2 µM
[40]
  TGI: 6.53 µM
[41]
  TGI: 0.781 µM
[42]
  TGI: 4.39 µM
[43]
  TGI: 8.71 µM
[44]
  TGI: 21.1 µM
[45]
  TGI: 4.01 µM
[46]
  TGI: 4.3 µM
[47]
  TGI: 4.68 µM
[48]
  TGI: 2.84 µM
[64]
  TGI: 9.43 µM
[49]
  TGI: 5.41 µM
[50]
  TGI: 17.5 µM
[51]
  TGI: 5.31 µM
[53]
  TGI: 5.73 µM
[54]
  TGI: 10.8 µM
[55]
  TGI: 6.88 µM
[56]
  TGI: 7.09 µM
[57]
  TGI: 4.48 µM
[58]
  TGI: 4.11 µM
[65]
  TGI: 3.45 µM
[59]
  TGI: 27 µM
